According to ChEMBL document CHEMBL1157482, “Insight from molecular modeling into different conformation and SAR of natural steroids and unnatural 7-oxa-steroids” (Bioorg Med Chem Lett, 2008):

Legend:
[1] = tested on: Rattus norvegicus; assay: Antiprogestin activity against ovariectomized po dosed Sprague-Dawley rat assessed as effect on ethinyl estradiol-induced C3 expression; format: functional; details: read-out: ID50 (the source's name)
[2] = tested on: Rattus norvegicus; assay: Antiprogestin activity against ovariectomized Sprague-Dawley rat assessed as effect on ethinyl estradiol-induced C3 expression at 10 mg/kg, po; format: functional
[3] = tested on: Rattus norvegicus; assay: AUC (last) in rat at 30 mg/kg, po; format: ADME, organism-based, Plasma; set-up: time 0 - last, dose 30 mg/kg, route oral; details: in vivo
[4] = Cmax in rat at 30 mg/kg, po; format: ADME, organism-based; set-up: dose 30 mg/kg, route oral; details: in vivo
[5] = Half life in rat at 30 mg/kg, po; format: ADME, organism-based; set-up: dose 30 mg/kg, route oral; details: in vivo
[6] = Tmax in rat at 30 mg/kg, po; format: ADME, organism-based; set-up: dose 30 mg/kg, route oral; details: in vivo
[7] = tested on: Rattus norvegicus; assay: AUC (0 to infinity) in rat at 30 mg/kg, po; format: ADME, organism-based, Plasma; set-up: time infinity, dose 30 mg/kg, route oral; details: in vivo
[8] = Mean retention time in rat at 30 mg/kg, po; format: ADME, organism-based; set-up: dose 30 mg/kg, route oral; details: in vivo
[9] = Half life in rat at 10 mg/kg, po; format: ADME, organism-based; set-up: dose 10 mg/kg, route oral; details: in vivo
[10] = Mean retention time in rat at 10 mg/kg, po; format: ADME, organism-based; set-up: dose 10 mg/kg, route oral; details: in vivo
[11] = tested on: Rattus norvegicus; assay: AUC (0 to infinity) in rat at 10 mg/kg, po; format: ADME, organism-based, Plasma; set-up: dose 10 mg/kg, route oral, time infinity; details: in vivo
[12] = Tmax in rat at 10 mg/kg, po; format: ADME, organism-based; set-up: dose 10 mg/kg, route oral; details: in vivo
[13] = tested on: Rattus norvegicus; assay: AUC (last) in rat at 10 mg/kg, po; format: ADME, organism-based, Plasma; set-up: time 0 - last, dose 10 mg/kg, route oral; details: in vivo
[14] = Cmax in rat at 10 mg/kg, po; format: ADME, organism-based; set-up: dose 10 mg/kg, route oral; details: in vivo

SMILES: CN(C)c1ccc([C@H]2C[C@@]3(C)[C@@H](CC[C@@]3(O)C#Cc3ccccc3)[C@@H]3OCC4=CC(=O)CCC4=C32)cc1
- ED50 [1]: 2.5 mg/kg
- Efficacy [2]: 100%

SMILES: CC#C[C@]1(O)CC[C@H]2[C@@H]3OCC4=CC(=O)CCC4=C3[C@@H](c3ccc(N(C)C)cc3)C[C@@]21C
- ED50 [1]: 2.4 mg/kg
- Efficacy [2]: 110%

SMILES: CC#C[C@]1(O)CC[C@H]2[C@@H]3CCC4=CC(=O)CCC4=C3[C@@H](c3ccc(N(C)C)cc3)C[C@@]21C [MIFEPRISTONE]
- ED50 [1]: 2.1 mg/kg
- AUC [3]: 446 ng·h/mL
- Cmax [4]: 53.8 ng/mL
- half-life [5]: 5.56 h
- Tmax [6]: 12.5 h
- AUC [7]: 3570 ng·h/mL
- Efficacy [2]: 130%
- MRT [8]: 8 h

SMILES: CN(C)c1ccc([C@H]2C[C@@]3(C)[C@@H](CC[C@@]3(O)C#Cc3ccc(F)cc3)[C@@H]3OCC4=CC(=O)CCC4=C32)cc1
- half-life [9]: 6.88 h
- MRT [10]: 9.4 h
- AUC [11]: 505 ng·h/mL
- Tmax [12]: 3 h
- AUC [13]: 460 ng·h/mL
- Cmax [14]: 48.7 ng/mL
